Source: PubChem BioAssay AID2060490 (Molecular Pharmacology Branch, DTP, NCI, 2025)

System: 885512-296-R-J2-PDC complex spheroid viability
Test: Anticancer human tumor 885512-296-R-J2-PDC patient-derived breast carcinoma cell line growth inhibition [GQUAD]
Details: for IC50: curve of first compound; for viability, T/C: stronger effect = lower value; active = viability on the fitted dose curve at most 10% of control; inactive = the rest
From the text: DNA G-quadruplex Stabilizer Agents in Combinations in Complex Spheroids
A high-throughput screen of multi-cell type tumor spheroids was designed to identify active combinations of DNA G-quadruplex stabilizer agents and targeted small molecules. Complex spheroids include a stromal component modeled by human endothelial cells (HUVEC) and fibroblasts modeled by human mesenchymal stem cells (MSCs). The concentration ranges selected for each drug and investigational agent were based upon clinically achievable concentrations if the clinical Cmax of the agent was known.
Compounds. The drugs and investigational agents: pidnarulex (CX-5461; NSC782164), APTO-253 (NSC789042), BRACO-19 (NSC847499), peposertib (NSC802822), ceralasertib (NSC780249), elimusertib (NSC800525), camonsertib (NSC841442), AZD-1390 (NSC803789), olaparib (NSC753686), talazoparib (NSC767125), ART-558 (NSC835418), sotorasib (NSC818433), MRTX-1133 (NSC836407), SN-38 (NSC673596), topotecan (NSC609699), etoposide (NSC141540), doxorubicin (NSC123127), gemcitabine (NSC613327), 5-fluorouracil (NSC19893), paclitaxel (NSC125973), vemurafenib (NSC761431), panobinostat (NSC761190), R-306465 (JNJ-16241199; NSC773264), adavosertib (NSC754352), TP-3654 (NSC805149), carboplatin (NSC241240), KSQ-4279 (NSC840948), and staurosporine (NSC755774) were obtained from the National Cancer Institute (NCI) Developmental Therapeutics Program Chemical Repository (34). The FDA-approved anticancer drug set is available from the NCI Developmental Therapeutics Program. […] The stock solutions were prepared in dimethyl sulfoxide (DMSO, Sigma-Aldrich, St. Louis, MO, cat. D2650) at 800-fold the tested concentration and stored at -70 degrees C prior to their use. All drugs and investigational agents were tested over a range starting from a high concentration at or near the clinical Cmax and decreasing in half-log increments. If the clinical Cmax for an agent had not been determined, the highest concentration tested was 10 microM.
2.3 Cell Culture. All cells were maintained in an incubator at 37 degrees C and 5% CO2 with 95% humidity. The PDC lines were cultured according to standard operating procedures established by the NCI PDMR. All PDCs were thawed and cultured in Matrigel-coated flasks prepared with a working solution of 1X Ham's F-12 nutrient mix, without supplementation (Invitrogen, cat. 11765054), 100 U/mL penicillin-streptomycin (Invitrogen, cat. 15140122), and 2.5% Matrigel (Corning Inc., cat. 354248) for the first three passages. The 857933-349-R-J2-PDC line was cultured in 6C/Colon 1B media, which includes advanced DMEM/F-12 (Thermo Fisher Scientific, cat. 12634028), 10 mM HEPES (Thermo Fisher Scientific, cat. 15630080), 1X GlutaMAX supplement (Thermo Fisher Scientific, cat. 35050061), 0.1 mg/mL primocin (InvivoGen, cat. ant-pm-2), 10% defined fetal bovine serum, heat inactivated (HyClone Laboratories Inc., cat. SH30070.03HI), 50% L-WRN conditioned media (ATCC, cat. CRL-3276), 1.25 mM N-Acetyl-L-cysteine (Sigma-Aldrich, cat. A9165), 10 mM nicotinamide (Sigma-Aldrich, cat. N0636), 1X B-27 supplement (Thermo Fisher Scientific, cat. 17504044), 1X N-2 supplement (Thermo Fisher Scientific, cat. 17502048), 10 microM Y-27632 dihydrochloride (Tocris Bioscience, cat. 1254), and 50 ng/mL human EGF recombinant protein (Thermo Fisher Scientific, cat. PHG0311). The 485176-168-R4-J1-PDC line was cultured in Panc media, which includes all 6C/Colon 1B media components plus 100 ng/mL human FGF-10 (Thermo Fisher Scientific, cat. 100-26), 500 nM SB-431542 (Selleckchem, cat. S1067), and gastrin (Tocris, cat. 3006).
[…]

[1] = second compound 0.0316 µM, first compound 0.0316 µM
[2] = second compound 0.0316 µM, first compound 0.1 µM
[3] = second compound 0.0316 µM, first compound 0.316 µM
[4] = second compound 0.0316 µM, first compound 1 µM
[5] = second compound 0.0316 µM, first compound 3.16 µM
[6] = second compound 0.0316 µM, first compound 10 µM
[7] = second compound 0.1 µM, first compound 0.0316 µM
[8] = second compound 0.1 µM, first compound 0.1 µM
[9] = second compound 0.1 µM, first compound 0.316 µM
[10] = second compound 0.1 µM, first compound 1 µM
[11] = second compound 0.1 µM, first compound 3.16 µM
[12] = second compound 0.1 µM, first compound 10 µM
[13] = second compound 0.316 µM, first compound 0.0316 µM
[14] = second compound 0.316 µM, first compound 0.1 µM
[15] = second compound 0.316 µM, first compound 0.316 µM
[16] = second compound 0.316 µM, first compound 1 µM
[17] = second compound 0.316 µM, first compound 3.16 µM
[18] = second compound 0.316 µM, first compound 10 µM
[19] = second compound 1 µM, first compound 0.0316 µM
[20] = second compound 1 µM, first compound 0.1 µM
[21] = second compound 1 µM, first compound 0.316 µM
[22] = second compound 1 µM, first compound 1 µM
[23] = second compound 1 µM, first compound 3.16 µM
[24] = second compound 1 µM, first compound 10 µM
[25] = second compound 3.16 µM, first compound 0.0316 µM
[26] = second compound 3.16 µM, first compound 0.1 µM
[27] = second compound 3.16 µM, first compound 0.316 µM
[28] = second compound 3.16 µM, first compound 1 µM
[29] = second compound 3.16 µM, first compound 3.16 µM
[30] = second compound 3.16 µM, first compound 10 µM
[31] = second compound 10 µM, first compound 0.0316 µM
[32] = second compound 10 µM, first compound 0.1 µM
[33] = second compound 10 µM, first compound 0.316 µM
[34] = second compound 10 µM, first compound 1 µM
[35] = second compound 10 µM, first compound 3.16 µM
[36] = second compound 10 µM, first compound 10 µM
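Note: spheroids exposed to the compounds for one week.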
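Throughout, for viability, T/C: percent of tumor spheroid viability relative to DMSO vehicle control wells.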

CC(C)(O)C1CCC(Nc2ccc3ncc(-c4cccc(C(F)(F)F)c4)n3n2)CC1 (centres undefined) + CN(C)c1ccc(Nc2c3ccc(NC(=O)CCN4CCCC4)cc3nc3cc(NC(=O)CCN4CCCC4)ccc23)cc1
inactive: viability, T/C [1] 111% | viability, T/C [2] 99.6% | viability, T/C [3] 105% | viability, T/C [4] 78.7% | viability, T/C [5] 11.9% | viability, T/C [6] 23.8% | viability, T/C [7] 99.6% | viability, T/C [8] 95% | viability, T/C [9] 97.9% | viability, T/C [10] 68.4% | viability, T/C [11] 15.2% | viability, T/C [12] 18.6% | viability, T/C [13] 106% | viability, T/C [14] 98.6% | viability, T/C [15] 86.3% | viability, T/C [16] 72.2% | viability, T/C [17] 9.35% | viability, T/C [18] 19.9% | viability, T/C [19] 92.7% | viability, T/C [20] 92.4% | viability, T/C [21] 86.3% | viability, T/C [22] 72.5% | viability, T/C [23] 9.81% | viability, T/C [24] 16.3% | viability, T/C [25] 102% | viability, T/C [26] 87.9% | viability, T/C [27] 80.5% | viability, T/C [28] 54.9% | viability, T/C [31] 16.9% | viability, T/C [32] 12.6% | viability, T/C [33] 16%
1560 nM: IC50 (second compound 0.316 µM)
1720 nM: IC50 (second compound 0.0316 µM)
1550 nM: IC50 (second compound 1 µM)
< 31.6 nM: IC50 (second compound 10 µM)
active: viability, T/C [29] 4.35% | viability, T/C [30] 4.39% | viability, T/C [34] 8.44% | viability, T/C [35] 0.72% | viability, T/C [36] 0.22%
1030 nM: IC50 (second compound 3.16 µM)
1510 nM: IC50 (second compound 0.1 µM)

COc1ncnc(C2CC2)c1-c1ncc2cnn(Cc3ccc(-c4nc(C(F)(F)F)cn4C(C)C)cc3)c2n1 + CN(C)c1ccc(Nc2c3ccc(NC(=O)CCN4CCCC4)cc3nc3cc(NC(=O)CCN4CCCC4)ccc23)cc1
> 10000 nM: IC50 (second compound 0.0316 µM) | IC50 (second compound 0.1 µM) | IC50 (second compound 0.316 µM) | IC50 (second compound 1 µM) | IC50 (second compound 3.16 µM)
inactive: viability, T/C [1] 107% | viability, T/C [2] 102% | viability, T/C [3] 93.3% | viability, T/C [4] 104% | viability, T/C [5] 100% | viability, T/C [6] 92.3% | viability, T/C [7] 103% | viability, T/C [8] 103% | viability, T/C [9] 97.3% | viability, T/C [10] 93.6% | viability, T/C [11] 92.5% | viability, T/C [12] 81.4% | viability, T/C [13] 105% | viability, T/C [14] 108% | viability, T/C [15] 103% | viability, T/C [16] 103% | viability, T/C [17] 104% | viability, T/C [18] 85.8% | viability, T/C [19] 95% | viability, T/C [20] 97.2% | viability, T/C [21] 103% | viability, T/C [22] 91% | viability, T/C [23] 101% | viability, T/C [24] 87.4% | viability, T/C [25] 99.4% | viability, T/C [26] 107% | viability, T/C [27] 106% | viability, T/C [28] 83.9% | viability, T/C [29] 81.3% | viability, T/C [30] 50.3% | viability, T/C [31] 28.5% | viability, T/C [32] 18.7% | viability, T/C [33] 16.4% | viability, T/C [34] 15.3% | viability, T/C [35] 11.9%
active: viability, T/C [36] 5.91%
< 31.6 nM: IC50 (second compound 10 µM)
